Patent US8592463B2, “Hedgehog pathway antagonists and therapeutic applications thereof” (Siena Biotech S.p.A., priority 2007, dated 2013)

Tests used:
[1] = target: T1, Smo receptor (Homo sapiens, UniProt Q99835); assay: Saturation binding of Bodipy-Cyclopamine to stable Smo-FLAG transfected cell line clone 3-5
T1 construct: expressed in transfected cells; host or cells: FlpIN293 (HEK293-derived)
Protocol: (§1) The interaction of compounds with the Smo receptor was tested by a displacement binding assay using fluorescent ligand for the Smo receptor (Bodipy-Cyclopamine, Toronto Research Chemical Inc, cat#B674800) as the labeled ligand to be displaced.
(§2) In order to determine the Kd (concentration of the ligand where 50% of the maximal binding is reached) and the Bmax (maximal amount of ligand which can bind specifically to the receptor in a biological preparation) of the fluorescent ligand, the Specific Binding (SB) was calculated by subtraction Non Specific Binding (NSB) from Total Binding (TB). The TB was determined by adding increasing concentration of Bodipy-Cyclopamine to the cells, while the NSB was determined by adding a mixture of increasing concentration of Bodipy-Cyclopamine with a saturating concentration of an well described antagonist (in this case, N-[3-(1H-benzimidazol-2-yl)-4-chlorophenyl]-3,5-dimethoxy-benzamide (Rubin et al. WO2003011219) at 10 μM was selected) to the cells. For each concentration of Bodipy-Cyclopamine, the SB was calculated by subtracting the value of NSB from TB. From the SB curve Bmax and Kd were calculated. […] The Ki is the concentration of non labeled ligand which inhibits 50% of the specific binding (SB) of the labeled ligand, and corrected for the effective used concentration of the labeled ligand. […]

[2] = tested on: 293FlpIN/clone E-3 mock transfected cells; assay: Saturation binding of Bodipy-Cyclopamine to stable mock transfected cell line clone E-3; design: species or system human
Protocol: as §1, §2

T1 sequence (Q99835 28-787): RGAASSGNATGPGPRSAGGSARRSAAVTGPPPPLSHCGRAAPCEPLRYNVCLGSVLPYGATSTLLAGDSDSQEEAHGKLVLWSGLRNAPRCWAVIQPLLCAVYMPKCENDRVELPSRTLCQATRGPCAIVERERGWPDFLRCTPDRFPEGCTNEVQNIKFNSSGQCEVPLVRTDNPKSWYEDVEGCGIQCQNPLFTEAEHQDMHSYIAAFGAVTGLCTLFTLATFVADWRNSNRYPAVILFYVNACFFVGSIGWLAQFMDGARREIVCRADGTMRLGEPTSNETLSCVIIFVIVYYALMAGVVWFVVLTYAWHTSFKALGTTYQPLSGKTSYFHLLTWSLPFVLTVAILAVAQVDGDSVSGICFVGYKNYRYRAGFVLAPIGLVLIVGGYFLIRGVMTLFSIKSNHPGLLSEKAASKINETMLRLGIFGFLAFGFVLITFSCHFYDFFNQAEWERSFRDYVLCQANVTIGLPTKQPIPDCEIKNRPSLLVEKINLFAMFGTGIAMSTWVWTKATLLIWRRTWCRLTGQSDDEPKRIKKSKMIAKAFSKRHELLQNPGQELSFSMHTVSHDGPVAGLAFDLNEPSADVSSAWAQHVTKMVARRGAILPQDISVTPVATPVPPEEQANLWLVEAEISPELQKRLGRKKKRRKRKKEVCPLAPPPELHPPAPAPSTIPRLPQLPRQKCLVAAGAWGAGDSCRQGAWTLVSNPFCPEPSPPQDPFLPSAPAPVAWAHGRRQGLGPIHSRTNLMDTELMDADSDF

## Bodipy-Cyclopamine
[1]
  Kd: 44.3 nM
[2]
  Kd: 115 nM
